Reference: ChEMBL document CHEMBL1221163, “Monocarboxylate transporter MCT1 is a target for immunosuppression” (Nat Chem Biol, 2005)
Activity calls are given as the source filed them. No cut-off for these calls is given here.

What was measured:
T-cell [1] = details: Homo sapiens, 50 nM
PANC-1 [2] = test: Antiproliferative activity against human PANC1 cells assessed as inhibition of cell proliferation at 1 uM by fluorimetric assay; format: functional
[3] = Antiproliferative activity against human primary epidermal keratinocytes assessed as inhibition of cell proliferation by fluorimetric assay; format: functional, cell-based; details: Keratinocyte
K562 [4] = test: Antiproliferative activity against human K562 cells assessed as inhibition of cell proliferation by fluorimetric assay; format: functional, cell-based
HUVEC [5] = test: Antiproliferative activity against human HUVEC assessed as inhibition of basic FGF-stimulated cell proliferation at 1 uM by fluorimetric assay; format: functional
HT-29 [6] = test: Antiproliferative activity against human HT-29 cells assessed as inhibition of cell proliferation at 1 uM by fluorimetric assay; format: functional
HUVEC [7] = test: Antiproliferative activity against human HUVEC assessed as inhibition of basic FGF-stimulated cell proliferation by fluorimetric assay; format: functional, cell-based
T-cell [8] = test: Inhibition of conversion of [1,2-13C2]glucose into [2,3-13C2]lactate in PMA-ionomycin stimulated human T cells at 10 nM after 6 hrs by GC-MS method; format: functional, cell-based
Rattus norvegicus [9] = test: Inhibition of graft-versus-host response-induced lymph node expansion in DA/Lewis recipient rat administered once daily through subcutaneous route; format: functional; details: sc
T-cell [10] = test: Antiproliferative activity against human T cells assessed as inhibition of PMA-ionomycin stimulated cell proliferation by [3H]thymidine incorporation assay; format: functional, cell-based
HT-29 [11] = test: Antiproliferative activity against human HT-29 cells assessed as inhibition of cell proliferation by fluorimetric assay; format: functional, cell-based
SW480 [12] = test: Antiproliferative activity against human SW480 cells assessed as inhibition of cell proliferation by fluorimetric assay; format: functional, cell-based
ZR-75-1 [13] = test: Antiproliferative activity against human ZR-75-1 cells assessed as inhibition of cell proliferation by fluorimetric assay; format: functional, cell-based
[14] = biological target: T1, Monocarboxylate transporter 4 (Homo sapiens) (UniProt O15427); test: Inhibition of human MCT4 expressed in INS1 cells assessed as reduction in intracellular acidification at 100 nM after 1 hr by L-Lactate uptake based BCECF staining; format: cell-based
T1 sequence (whole entry): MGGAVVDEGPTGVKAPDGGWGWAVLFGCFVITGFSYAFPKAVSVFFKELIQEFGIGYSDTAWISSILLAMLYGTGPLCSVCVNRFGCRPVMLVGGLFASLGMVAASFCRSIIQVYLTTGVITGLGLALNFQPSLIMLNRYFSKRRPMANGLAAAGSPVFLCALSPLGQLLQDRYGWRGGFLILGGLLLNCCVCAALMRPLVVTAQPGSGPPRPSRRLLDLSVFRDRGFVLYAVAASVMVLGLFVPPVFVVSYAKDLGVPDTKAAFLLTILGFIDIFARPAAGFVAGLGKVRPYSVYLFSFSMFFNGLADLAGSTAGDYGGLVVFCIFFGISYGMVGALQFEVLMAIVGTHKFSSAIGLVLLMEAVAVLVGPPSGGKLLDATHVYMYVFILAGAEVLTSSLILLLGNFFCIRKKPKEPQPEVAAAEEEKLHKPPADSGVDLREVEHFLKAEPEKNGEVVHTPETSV

T-cell [15] = test: Increase in intracellular lactate production in PMA-ionomycin stimulated human T cells after 4 hrs; format: functional, cell-based
T-24 [16] = test: Antiproliferative activity against human T24 cells assessed as inhibition of cell proliferation at 1 uM by fluorimetric assay; format: functional
[17] = Antiproliferative activity against human KIT225 cells assessed as inhibition of IL2-stimulated cell proliferation at 1 uM by fluorimetric assay; format: functional
[18] = Antiproliferative activity against human KIT225 cells assessed as inhibition of IL2-stimulated cell proliferation by fluorimetric assay; format: functional, cell-based
Rattus norvegicus [19] = species on record: Rattus norvegicus; details: DA/Lewis, 4 mg/kg
T-cell [20] = details: Homo sapiens, 10 uM
T-cell [21] = test: Antiproliferative activity against Lewis rat T cells assessed as inhibition of PMA-ionomycin stimulated cell proliferation by [3H]thymidine incorporation assay; format: functional, cell-based
PANC-1 [22] = test: Antiproliferative activity against human PANC1 cells assessed as inhibition of cell proliferation by fluorimetric assay; format: functional, cell-based
PBMC = test: Antiproliferative activity against human PBMC assessed as inhibition of PMA/ionomycin-stimulated cell proliferation by [3H]thymidine incorporation assay; format: functional, cell-based
ZR-75-1 [23] = test: Antiproliferative activity against human ZR-75-1 cells assessed as inhibition of cell proliferation at 1 uM by fluorimetric assay; format: functional
THP-1 [24] = test: Antiproliferative activity against human THP1 cells assessed as inhibition of cell proliferation at 1 uM by fluorimetric assay; format: functional
[25] = Antiproliferative activity against human T cells assessed as inhibition of PMA-ionomycin stimulated cell proliferation after 3 days by [3H]thymidine incorporation assay; format: functional, cell-based
SW480 [26] = test: Antiproliferative activity against human SW480 cells assessed as inhibition of cell proliferation at 1 uM by fluorimetric assay; format: functional
T-cell [27] = details: Homo sapiens, 10 uM; remark: listed apart in the source
HUVEC [28] = test: Antiproliferative activity against human HUVEC assessed as inhibition of acidic FGF-stimulated cell proliferation at 1 uM by fluorimetric assay; format: functional
HEK293 [29] = test: Antiproliferative activity against HEK293 cells assessed as inhibition of cell proliferation by fluorimetric assay; format: functional, cell-based; details: Homo sapiens
HUVEC [30] = test: Antiproliferative activity against human HUVEC assessed as inhibition of acidic FGF-stimulated cell proliferation by fluorimetric assay; format: functional, cell-based
HEK293 [31] = test: Antiproliferative activity against HEK293 cells assessed as inhibition of cell proliferation at 1 uM by fluorimetric assay; format: functional; details: Homo sapiens
[32] = biological target: T2, Monocarboxylate transporter 3 (Homo sapiens) (UniProt O95907); test: Inhibition of human MCT3 expressed in INS1 cells assessed as reduction in intracellular acidification at 100 nM after 1 hr by L-Lactate uptake based BCECF staining; format: cell-based
T2 sequence (whole entry): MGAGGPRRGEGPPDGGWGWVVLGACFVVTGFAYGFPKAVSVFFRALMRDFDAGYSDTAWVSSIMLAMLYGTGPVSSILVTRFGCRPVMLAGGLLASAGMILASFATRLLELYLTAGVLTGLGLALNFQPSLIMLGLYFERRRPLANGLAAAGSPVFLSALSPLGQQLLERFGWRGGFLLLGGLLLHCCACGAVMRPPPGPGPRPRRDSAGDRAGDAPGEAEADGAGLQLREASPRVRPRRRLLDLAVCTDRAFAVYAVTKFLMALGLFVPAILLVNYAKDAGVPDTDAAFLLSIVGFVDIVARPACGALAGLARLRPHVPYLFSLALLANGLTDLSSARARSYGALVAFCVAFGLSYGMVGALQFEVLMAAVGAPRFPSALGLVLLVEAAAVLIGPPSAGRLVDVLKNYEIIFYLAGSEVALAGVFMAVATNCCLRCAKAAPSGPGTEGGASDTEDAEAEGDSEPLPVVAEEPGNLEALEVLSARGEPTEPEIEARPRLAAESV

K562 [33] = test: Antiproliferative activity against human K562 cells assessed as inhibition of cell proliferation at 1 uM by fluorimetric assay; format: functional
T-24 [34] = test: Antiproliferative activity against human T24 cells assessed as inhibition of cell proliferation by fluorimetric assay; format: functional, cell-based
[35] = Antiproliferative activity against human primary epidermal keratinocytes assessed as inhibition of cell proliferation at 1 uM by fluorimetric assay; format: functional; details: Keratinocyte
THP-1 [36] = test: Antiproliferative activity against human THP1 cells assessed as inhibition of cell proliferation by fluorimetric assay; format: functional, cell-based

CC(C)Cn1c(=O)n(C)c(=O)c2c(SCCCO)c(Cc3cccc4ccccc34)sc21
inhibition (T-cell [1]): Active
inhibition at 1 µM (PANC-1 [2]): < 20%
IC50 [3]: > 1000 nM
IC50 (K562 [4]): > 1000 nM
inhibition at 1 µM (HUVEC [5]): < 20%
inhibition at 1 µM (HT-29 [6]): < 20%
IC50 (HUVEC [7]): > 1000 nM
inhibition (T-cell [8]): Active
ED50 (Rattus norvegicus [9]): 1.4 mg/kg/day
inhibition (T-cell [10]): Active
IC50 (HT-29 [11]): > 1000 nM
IC50 (SW480 [12]): > 1000 nM
IC50 (ZR-75-1 [13]): > 1000 nM
inhibition [14]: inactive
IC50 (T-cell [15]): 0.407 nM
inhibition at 1 µM (T-24 [16]): < 20%
inhibition at 1 µM [17]: 61%
IC50 [18]: 1.1 nM
inhibition (Rattus norvegicus [19]): Active
inhibition (T-cell [20]): inactive
inhibition (T-cell [21]): Active
IC50 (PANC-1 [22]): > 1000 nM
inhibition (PBMC): Active
inhibition at 1 µM (ZR-75-1 [23]): < 20%
inhibition at 1 µM (THP-1 [24]): < 20%
IC50 [25]: 0.234 nM
inhibition at 1 µM (SW480 [26]): < 20%
inhibition (T-cell [27]): inactive
inhibition at 1 µM (HUVEC [28]): < 20%
IC50 (HEK293 [29]): > 1000 nM
IC50 (HUVEC [30]): > 1000 nM
inhibition at 1 µM (HEK293 [31]): < 20%
inhibition [32]: inactive
inhibition at 1 µM (K562 [33]): < 20%
IC50 (T-24 [34]): > 1000 nM
inhibition at 1 µM [35]: < 20%
IC50 (THP-1 [36]): > 1000 nM
